# Test results taken from patent US6258837A, “Neuropeptide Y receptor antagonist” (Banyu Pharmaceutical Co., Ltd., priority 1997, dated 2001).
# Key:
# human NPY Y5 receptor = molecular target: T1, human NPY Y5 receptor (Homo sapiens, UniProt Q15761); assay: test of inhibition of NPY binding ([125I]peptide YY binding to membranes of cells expressing the NPY Y5 receptor)
# T1 construct: expressed in transfected cells; host or cells: COS-7, CHO and LM(tk-)
# T1 sequence (Q15761 1-445): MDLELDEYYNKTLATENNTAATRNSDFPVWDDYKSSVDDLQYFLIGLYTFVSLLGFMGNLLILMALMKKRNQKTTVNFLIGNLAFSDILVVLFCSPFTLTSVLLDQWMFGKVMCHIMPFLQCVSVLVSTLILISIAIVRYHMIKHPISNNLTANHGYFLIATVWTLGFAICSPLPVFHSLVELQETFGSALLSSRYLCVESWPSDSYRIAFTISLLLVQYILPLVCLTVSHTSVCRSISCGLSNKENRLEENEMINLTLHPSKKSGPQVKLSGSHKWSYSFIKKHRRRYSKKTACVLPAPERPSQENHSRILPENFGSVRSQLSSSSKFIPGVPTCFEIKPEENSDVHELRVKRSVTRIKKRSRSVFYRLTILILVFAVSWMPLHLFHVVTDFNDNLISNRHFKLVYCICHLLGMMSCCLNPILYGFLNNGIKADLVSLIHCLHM
# Excerpt: cDNA Sequence encoding a human NPY Y5 receptor [International Publication WO 96/16542] was cloned into expression vectors pcDNA3, pRc/RSV (manufactured by Invitrogen) and pCI-neo (manufactured by Promega). Using the cationic lipid method [see Proceedings of the National Academy of Science of the United States of America, vol.84, p.7413 (1987)], host cells COS-7, CHO and LM(tk-) (American Type Culture Collection) were transfected with the thus prepared expression vectors to obtain cells in which the NPY Y5 receptor had been expressed.
# After washing with 50 mM Tris buffer, pH 7.4, containing 0.3% BSA, radioactivity on the glass filter was measured using a gamma counter. Non-specific binding was measured in the presence of 1 μM of peptide YY to calculate a concentration of each compound to be tested which concentration is needed to inhibit 50% of the specific binding of the peptide YY (IC50 value) [see Endocrinology, vol.131, p.2090 (1992)].
# SD male rats [1] = assay: acute toxicity test; assay type: in vivo, rat; conditions: 500 mg/kg oral
# Description: A compound to be tested in an amount of 500 mg/kg was orally administered to each of SD male rats (10-week-old; 300 to 400 g). After immediately, 5 minutes, 30 minutes, 1 hour, 2 hours, 4 hours, 6 hours, 8 hours and 24 hours from the administration, the condition of each rat was observed. And, after 24 hours from the administration, the rat was killed by dehematizing via carotid artery and then laparotomized in order to observe the presence or absence of any change in abdominal organs by the naked eye. In this connection, the compound to be tested was administered in a dose of 5 ml/kg after suspending in a 0.5% aqueous methyl cellulose solution.
# SD male rats [2] = assay: test of inhibition of feeding behavior induced by bPP; assay type: in vivo, rat; conditions: oral, one hour before bPP (5 μg/head/10 μl, lateral cerebral ventricle); food intake during two hours
# Description: Under pentobarbital anesthesia (single intraperitoneal injection of 50 mg/kg), a chronic guide cannula (outer diameter 0.8 mm; inner diameter 0.5 mm; length 10 mm) was stereotactically inserted in a right lateral cerebral ventricle of each of SD male rats (7 to 8-week-old; 200 to 300 g) and fixed using a dental resin. A tip of the guide cannula was positioned 0.9 mm behind a bregma, 1.2 mm at the right of a median line and in the depth of 1.5 mm from the brain surface. An inner needle was inserted such that its tip projected from the tip of the guide cannula by about 2 mm and arrived to a lateral cerebral ventricle. After a recovery period of about one week, a bovine pancreatic polypeptide (bpp, 5 μg/head/10 μl) was administered to the lateral cerebral ventricle. A compound to be tested was orally administered one hour before the administration of bpp and food intake during two hours from the administration was measured. In this connection, the compound to be tested was administered after dissolving in a 0.5% aqueous methyl cellulose solution and bpp was administered after dissolving in 10 mM phosphate buffered saline.
structure (smiles),measurement,setting,value
"CC1(C)CC(=O)C(C2C3=C(CC(C)(C)CC3=O)Oc3ccccc32)C(=O)C1 (racemic) [compound [I], 3,3-dimethyl-9-(4,4-dimethyl-2,6-dioxo-cyclohexyl)-1-oxo-1,2,3,4-tetrahydroxanthene]",IC50,"human NPY Y5 receptor; [125I] peptide YY, 25° C., 2 hours, pH 7.4, membrane preparations, read-out: concentration needed to inhibit 50% of the specific binding of the peptide YY (IC50 value)",27 nM
same,inhibition of the binding of the peptide YY to the NPY Y5 receptor (in words),human NPY Y5 receptor; peptide YY (a homologue of NPY),strongly inhibited the binding
same,change in abdominal organs observed by the naked eye (acute toxicity),SD male rats [1]; 24 hours after administration,abdominal organs were observed to be unchanged
same,general health of each rat (acute toxicity),SD male rats [1]; until 24 hours after administration,no abnormality in general health of each rat was observed
same,inhibition of the increase in food intake induced by bPP,SD male rats [2],significantly inhibits the increase in food intake
